The record followed here is ChEMBL document CHEMBL4619706, “Synthesis, biological evaluation and molecular modeling study of [1,2,4]-Triazolo[4,3-c]quinazolines: New class of EGFR-TK inhibitors” (Bioorg Med Chem, 2020).

In assay [1] the test system is HeLa. Kind of assay: Anticancer activity against human HeLa cells assessed as inhibition of cell growth incubated for 24 hrs by MTT assay. It counts as functional, cell-based. (In general: Tetrazolium dyes change colour on reduction, which living cells bring about.)
The subject of assay [2] is HCT-116. Kind of assay: Anticancer activity against human HCT116 cells assessed as inhibition of cell growth incubated for 24 hrs by MTT assay. It counts as functional, cell-based. Particulars: HCT-116, 24 h.
The target of assay [3] is Epidermal growth factor receptor (Homo sapiens, UniProt P00533). Kind of assay: Inhibition of human EGFR-TK using PTK substrate after 40 mins in presence of ATP by Kinase-Glo luminescent assay. A general note: Kinase-Glo reads ATP consumption through a luciferase reaction.
The subject of assay [4] is PC-3. The experiment in a line: Anticancer activity against human PC3 cells assessed as inhibition of cell growth incubated for 24 hrs by MTT assay. Particulars: PC-3, 24 h. Type of assay: functional, cell-based.
The subject of assay [5] is HepG2. The experiment in a line: Anticancer activity against human HepG2 cells assessed as inhibition of cell growth incubated for 24 hrs by MTT assay. It counts as functional, cell-based. The note with it: HepG2, 24 h.
Assay [6] relates to MCF7. Kind of assay: Anticancer activity against human MCF7 cells assessed as inhibition of cell growth incubated for 24 hrs by MTT assay. Particulars: MCF7, 24 h. Type of assay: functional, cell-based.
Assay [7] relates to MCF7. The experiment in a line: Induction of apoptosis in human MCF7 cells assessed as viable cells after 24 hrs by Annexin V-FITC/propidium iodide double staining based FACSCalibur flow cytometry analysis (reference value: 97.89 %). It counts as functional. On the technique in general: Flow cytometry measures light scatter and fluorescence of single cells or particles in a stream.

Assay [8] relates to MCF7. The experiment in a line: Induction of apoptosis in human MCF7 cells assessed as late apoptotic cells after 24 hrs by Annexin V-FITC/propidium iodide double staining based FACSCalibur flow cytometry analysis (reference value: 0.43 %). Type of assay: functional.
Assay [9] relates to MCF7. The experiment in a line: Cell cycle arrest in human MCF7 cells assessed as accumulation of cells at G0/G1 phase at IC50 after 24 hrs by propidium iodide/RNase staining based FACSCalibur flow cytometry analysis (reference value: 57.28 %). Type of assay: functional.
Assay [10] concerns MCF7. Kind of assay: Cell cycle arrest in human MCF7 cells assessed as accumulation of cells at G2/M phase at IC50 after 24 hrs by propidium iodide/RNase staining based FACSCalibur flow cytometry analysis (reference value: 16.23 %). It counts as functional.
The subject of assay [11] is MCF7. The experiment in a line: Cell cycle arrest in human MCF7 cells assessed as accumulation of cells at S phase at IC50 after 24 hrs by propidium iodide/RNase staining based FACSCalibur flow cytometry analysis (reference value: 26.49 %). It counts as functional.
For assay [12], the system named is MCF7. Kind of assay: Induction of apoptosis in human MCF7 cells assessed as cumulative apoptosis after 24 hrs by Annexin V-FITC/propidium iodide double staining based FACSCalibur flow cytometry analysis (reference value: 2.11 %). It counts as functional.
Assay [13] has as its system MCF7. The experiment in a line: Cell cycle arrest in human MCF7 cells assessed as accumulation of cells at pre-G1 phase at IC50 after 24 hrs by propidium iodide/RNase staining based FACSCalibur flow cytometry analysis (reference value: 2.11 %). It counts as functional.
Assay [14] relates to MCF7. The experiment in a line: Induction of apoptosis in human MCF7 cells assessed as early apoptotic cells after 24 hrs by Annexin V-FITC/propidium iodide double staining based FACSCalibur flow cytometry analysis (reference value: 1.22 %). Type of assay: functional.
Assay [15] deals with MCF7. Kind of assay: Induction of apoptosis in human MCF7 cells assessed as necrotic cells after 24 hrs by Annexin V-FITC/propidium iodide double staining based FACSCalibur flow cytometry analysis (reference value: 0.46 %). It counts as functional.
Assay [16] deals with MCF7. The experiment in a line: Induction of apoptosis in human MCF7 cells assessed after 24 hrs by Annexin V-FITC/propidium iodide double staining based FACSCalibur flow cytometry analysis. It counts as functional, cell-based.

Epidermal growth factor receptor, sequence (P00533 whole entry): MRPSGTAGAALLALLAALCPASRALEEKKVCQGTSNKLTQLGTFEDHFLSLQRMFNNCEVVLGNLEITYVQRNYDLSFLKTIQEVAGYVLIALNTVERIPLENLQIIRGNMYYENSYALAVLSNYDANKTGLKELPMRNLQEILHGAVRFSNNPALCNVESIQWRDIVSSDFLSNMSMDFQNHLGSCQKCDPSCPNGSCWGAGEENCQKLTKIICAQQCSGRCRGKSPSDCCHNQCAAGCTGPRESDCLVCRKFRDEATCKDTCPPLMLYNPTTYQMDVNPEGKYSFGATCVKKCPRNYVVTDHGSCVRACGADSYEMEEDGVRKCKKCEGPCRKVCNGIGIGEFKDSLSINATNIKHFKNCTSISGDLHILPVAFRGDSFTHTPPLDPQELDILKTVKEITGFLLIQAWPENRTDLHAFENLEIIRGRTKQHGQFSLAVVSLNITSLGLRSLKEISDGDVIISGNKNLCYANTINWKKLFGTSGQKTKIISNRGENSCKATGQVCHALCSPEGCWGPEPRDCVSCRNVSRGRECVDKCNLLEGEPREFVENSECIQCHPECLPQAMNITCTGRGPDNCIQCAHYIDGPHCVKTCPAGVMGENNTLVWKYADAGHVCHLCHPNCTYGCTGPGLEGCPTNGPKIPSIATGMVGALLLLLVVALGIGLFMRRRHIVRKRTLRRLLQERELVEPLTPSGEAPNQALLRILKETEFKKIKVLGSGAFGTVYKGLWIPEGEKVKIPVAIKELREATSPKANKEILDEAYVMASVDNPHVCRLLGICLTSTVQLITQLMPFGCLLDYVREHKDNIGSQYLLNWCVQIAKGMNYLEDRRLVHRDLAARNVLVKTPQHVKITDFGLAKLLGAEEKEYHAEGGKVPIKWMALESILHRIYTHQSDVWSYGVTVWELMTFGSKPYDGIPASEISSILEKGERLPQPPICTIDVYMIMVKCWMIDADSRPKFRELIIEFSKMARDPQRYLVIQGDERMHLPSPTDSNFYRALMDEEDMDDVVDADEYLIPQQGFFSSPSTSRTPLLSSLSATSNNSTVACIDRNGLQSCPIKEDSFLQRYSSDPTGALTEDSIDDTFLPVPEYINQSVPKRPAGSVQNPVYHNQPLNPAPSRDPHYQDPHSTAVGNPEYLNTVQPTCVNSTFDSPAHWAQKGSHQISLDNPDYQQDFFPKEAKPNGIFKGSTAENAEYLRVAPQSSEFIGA

As for `O=C1CSCC(=O)N1c1nnc2c3ccccc3nc(Sc3ccc(Br)cc3)n12`, the IC50 in assay [1] was 11.8 µM; in assay [2] it was 12 µM; in assay [3], 4.1 µM; in assay [4], 10.7 µM; in [5], 8.43 µM; in assay [6], 9.48 µM.
For the compound `Nc1ccc(Oc2nc3ccccc3c3nncn23)cc1`, the IC50 stood at 25.7 µM in assay [1]; 27.6 µM in [2]; 26.7 µM in assay [4]; 26.2 µM in [5]; 20.5 µM in assay [6].
As for `Clc1nc2ccccc2c2nnc(/N=C/C=C/c3ccccc3)n12`, the IC50 was 9.16 µM in assay [1]; 12.9 µM in [2]; 7.56 µM in [3]; 16.4 µM in assay [4]; 11.6 µM in [5]; 8.34 µM in [6].
Regarding `C(=N\c1nnc2c3ccccc3nc(Nc3ccccc3)n12)/c1ccccc1`, the IC50 in [1] worked out at 22.3 µM; in assay [2] it was 24.8 µM; in assay [4] it was 12.6 µM; in assay [5] it was 19.2 µM; in assay [6], 20.3 µM.
In the case of `CN1CCN(CCCNc2ccc(Oc3nc4ccccc4c4nncn34)cc2)CC1`, the IC50 in [1] was found to be 12.5 µM; in [2], 17.2 µM; in [4], 14.3 µM; in assay [5] it was 16.5 µM; in assay [6], 15.3 µM.
For `COc1ccc(/C=N/c2nnc3c4ccccc4nc(Cl)n23)cc1O` the same measures were 29.4 µM, 31 µM, 33.5 µM, 49.2 µM and 37.2 µM.
For the compound `O=[N+]([O-])c1cccc(/C=N/c2nnc3c4ccccc4nc(Nc4ccccc4)n23)c1`, the IC50 in assay [1] turned out to be 31.4 µM; in assay [2], 34.6 µM; in assay [4], 35.7 µM; in [5], 44.1 µM; in [6], 40.4 µM.
On to `COc1cccc2c1C(=O)c1c(O)c3c(c(O)c1C2=O)C[C@@](O)(C(=O)CO)C[C@@H]3O[C@H]1C[C@H](N)[C@H](O)[C@H](C)O1` [DOXORUBICIN], for which the Activity in assay [7] is listed as 67.84%; in assay [8], 19.81%; in [9], 32.16%; in assay [10], 48.57%; in [11], 22.91%; in [12] it was 32.16%. The Activity came out at 32.16% in assay [13], 9.28% in assay [14] and 3.07% in [15].
Consider `O=C(CCl)Nc1nnc2c3ccccc3nc(Sc3ccc(Br)cc3)n12`, for which the IC50 in [1] was determined as 30.4 µM; in [2], 37.5 µM; in assay [4] it was 37.1 µM; in assay [5] it was 29.9 µM; in assay [6] it was 34.4 µM.
For `Clc1nc2ccccc2c2nnc(/N=C/c3ccccc3)n12` the same measures were 34.7 µM, 22.5 µM, 27.5 µM, 19.3 µM and 17.1 µM.
For `Fc1ccc(/C=N/c2nnc3c4ccccc4nc(Cl)n23)cc1` the same measures were 29.2 µM, 18.5 µM, 38.5 µM, 31.2 µM and 25.9 µM.
For `c1ccc(N2CCN(CCCNc3ccc(Oc4nc5ccccc5c5nncn45)cc3)CC2)cc1` the same measures were 23.4 µM, 32.5 µM, 51.5 µM, 24.2 µM and 30.5 µM.
Consider `N#CC1=C(N)N(c2nnc3c4ccccc4nc(Sc4ccc(Br)cc4)n23)C(=O)C1`, for which the Activity in assay [7] is 80.59%; in assay [16] it was “Dose-dependent effect”; in assay [8] it was 10.26%; in assay [9], 41.33%; in assay [10], 33.21%; in assay [11] it was 25.46%. Also, the Activity is 19.41% in assay [12], 19.41% in assay [13], 7.26% in [14] and 1.89% in [15]. Moreover, the IC50 in assay [1] came to 9.47 µM; in assay [2], 13.5 µM; in [3] it was 1.8 µM; in assay [4], 10.6 µM; in assay [5] it was 15.3 µM; in [6], 8.58 µM.
For `CCN1CCN(CC(=O)Nc2nnc3c4ccccc4nc(Sc4ccc(Br)cc4)n23)CC1`, the IC50 worked out at 15.4 µM in [1]; 15.2 µM in assay [2]; 3.91 µM in [3]; 10.7 µM in assay [4]; 11.6 µM in assay [5]; 12.5 µM in assay [6].
For `O=C(Nc1nnc2c3ccccc3nc(Sc3ccc(Br)cc3)n12)c1ccccc1`, the IC50 in [1] is 46.4 µM; in assay [2], 44.2 µM; in assay [4], 29.9 µM; in assay [5] it was 32.4 µM; in [6], 30.2 µM.
Consider `O=C(CN1CCOCC1)Nc1nnc2c3ccccc3nc(Sc3ccc(Br)cc3)n12`, for which the IC50 in assay [1] is 47.1 µM; in assay [4], 61.5 µM; in assay [5], 50.3 µM; in assay [6] it was 55.6 µM.
As for `Cc1cccc(Nc2nc3ccccc3c3nnc(/N=C/c4ccc(F)cc4)n23)c1`, the half-maximal inhibitory concentration (IC50) in assay [1] was 26.5 µM; in assay [2] it was 20.4 µM; in assay [4], 30.5 µM; in [5], 24.2 µM; in [6], 18.2 µM.
For `CN1CCN(CC(=O)Nc2nnc3c4ccccc4nc(Sc4ccc(Br)cc4)n23)CC1` the same measures were 35.1 µM, 44.9 µM, 41.7 µM, 27.2 µM and 24.4 µM.
For `C(=N\c1nnc2c3ccccc3nc(Nc3ccccc3)n12)/c1ccco1` the same measures were 15.5 µM, 24.4 µM, 43.9 µM, 20.8 µM and 19.7 µM.
For `Nc1cc([N+](=O)[O-])ccc1Nc1nc2ccccc2c2nnc(/N=C/C=C/c3ccccc3)n12` the same measures were 36.1 µM, 11.6 µM, 25.2 µM, 13.7 µM and 32.7 µM.
Consider `Nc1nnc2c3ccccc3nc(Sc3ccc(Br)cc3)n12`, for which the half-maximal inhibitory concentration (IC50) in [1] came to 45.2 µM; in assay [2], 63.5 µM; in assay [4], 59.5 µM; in assay [5] it was 44.9 µM; in [6], 57.3 µM.
As for `COc1ccc(/C=N/c2nnc3c4ccccc4nc(Nc4ccc(C)cc4N)n23)cc1O`, the IC50 came to 10.1 µM in assay [1]; 8.27 µM in [2]; 4.28 µM in assay [3]; 17.7 µM in [4]; 9.8 µM in assay [5]; 12.3 µM in assay [6].
On to `O=C(Nc1nnc2c3ccccc3nc(Sc3ccc(Br)cc3)n12)c1ccc(Cl)c([N+](=O)[O-])c1`, for which the IC50 worked out at 16.2 µM in [1]; 20.4 µM in assay [2]; 16.8 µM in assay [4]; 18.2 µM in [5]; 19.8 µM in [6].
For `O=[N+]([O-])c1cccc(/C=N/c2nnc3c4ccccc4nc(Cl)n23)c1` the same measures were 73.4 µM, 49.2 µM, 60.2 µM, 55.5 µM and 48.2 µM.
For `c1ccc2c(c1)nc(Oc1ccc(NCCCN3CCOCC3)cc1)n1cnnc21` the same measures were 44.3 µM, 39.6 µM, 41.6 µM, 46.2 µM and 38.5 µM.
In the case of `Clc1nc2ccccc2c2nnc(/N=C/c3ccco3)n12`, the Activity in [7] is 91.44%; in [16], “Dose-dependent effect”; in [8], 4.22%; in [9], 46.72%; in assay [10], 23.09%; in assay [11] it was 30.19%. The Activity in assay [12] turned out to be 8.56%; in assay [13] it was 8.56%; in assay [14], 2.92%; in [15], 1.42%. Further, the IC50 stood at 18.9 µM in [1]; 14.8 µM in assay [2]; 0.74 µM in assay [3]; 21.7 µM in assay [4]; 15 µM in assay [5]; 9.73 µM in assay [6].
In the case of `CCN1CCN(CCCNc2ccc(Oc3nc4ccccc4c4nncn34)cc2)CC1`, the IC50 in assay [1] stood at 14.3 µM; in assay [2], 13.8 µM; in [3] it was 9.51 µM; in assay [4], 10.6 µM; in assay [5] it was 11.5 µM; in assay [6] it was 12.9 µM.

As a reminder, the IC50 is the concentration needed to halve the response being measured.
